# pIC50: −log10 of the molar value. “Also recorded” adds a separate entry of the source.
# How the values were obtained:
# [1] = test system: DLD-1; experiment: MTT cytotoxicity assay; assay type: cell-based; conditions: 72 h
# Procedure: (§1) Cell lines. The human primary PDAC cell lines PANC-1 (ATCC CRL 1469); Capan-2 (ATCC HTB-80) and metastatic PDAC cell lines Capan-1 (ATCC HTB-79), AsPC-1 (ATCC CRL-1682), L1210 (ATCC CCL-219), KB (ATCC CCL-17), HeLa, SiHa (ATCC HTB-35), HCT-116 (ATCC CCL-247), DLD-1 (ATCC CCL221), hTERT-HPNE (ATCC CRL-4023), Vero (ATCC CCL-81) were purchased from the ATCC. The cell lines were cultured and maintained in the media as recommended by the supplier. The cell lines were regularly tested for mycoplasma contamination and authenticated. In addition to ATCC cell lines, Dr. Glazer's lab generated patient-derived PDAC cell line, PD002. PD002 Cells were maintained and cultured in DMEM medium supplemented with 20% FBS and 100 IU/mL penicillin and incubated at 37° C. with 5% CO2.
# (§2) MTT cytotoxicity assay. To study the effect of treatment with DPAGT1 inhibitors on the growth and proliferation of cells, a fixed number of cells (5×10^4 cells/well, 196 μL) were plated in a 96 well plate. Into each well 5 μL of drug concentration was added. After 72 h of incubation with drugs at 37° C., 5% CO2, 10 μL of MTT solution (5 mg/mL in PBS) was added and incubated another 3 h at 37° C., 5% CO2. The medium was removed, and DMSO (200 μL/well) was added. Viability was assessed on the basis of cellular conversion of MTT into a purple formazan product. The absorbance of the colored formazan product was measured at 570 nm by BioTek Synergy HT Spectrophotometer.
# [2] = test system: HPNE; experiment: MTT cytotoxicity assay; assay type: cell-based
# Procedure: as §1, §2
# [3] = test system: Vero; experiment: MTT cytotoxicity assay; assay type: cell-based
# Procedure: as §1, §2
# [4] = test system: HCT-116; experiment: MTT cytotoxicity assay; assay type: cell-based; conditions: 72 h
# Procedure: as §1, §2
# [5] = test system: KB; experiment: MTT cytotoxicity assay; assay type: cell-based; conditions: 72 h
# Procedure: as §1, §2
# [6] = test system: PD002; experiment: MTT cytotoxicity assay; assay type: cell-based
# Procedure: as §1, §2
# [7] = test system: SiHa; experiment: MTT cytotoxicity assay; assay type: cell-based; conditions: 72 h
# Procedure: as §1, §2
# [8] = test system: L1210; experiment: MTT cytotoxicity assay; assay type: cell-based
# Procedure: as §1, §2
# [9] = target: T1, AglH (M. jannaschii) (Methanocaldococcus jannaschii, UniProt Q58513); experiment: AglH assay; conditions: read-out: IC50 AglH (M. jannaschii)
# T1 sequence (Q58513 1-301): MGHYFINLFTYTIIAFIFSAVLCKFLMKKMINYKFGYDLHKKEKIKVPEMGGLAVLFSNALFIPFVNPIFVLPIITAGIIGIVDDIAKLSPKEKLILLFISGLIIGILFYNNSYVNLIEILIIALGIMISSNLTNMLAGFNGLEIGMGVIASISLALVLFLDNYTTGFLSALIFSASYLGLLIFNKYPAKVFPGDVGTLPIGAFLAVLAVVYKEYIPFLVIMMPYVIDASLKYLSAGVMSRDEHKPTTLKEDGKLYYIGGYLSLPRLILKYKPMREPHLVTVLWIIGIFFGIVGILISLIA
# [10] = test system: Snail; experiment: Western blot of Snail in cervical cancer; assay type: cell-based; conditions: effective at 0.2 μM
# [11] = test system: DPAGT1 gene; experiment: RT-qPCR analyses of DPAGT1 expression level; assay type: cell-based; conditions: PD002
# [12] = test system: cell lines in Table 2; experiment: MTT assays, summary over the cell lines in Table 2; assay type: cell-based
# Procedure: as §1, §2
# [13] = test system: Snail; experiment: Immunofluorescence assay using an anti-Snail antibody; assay type: cell-based
# [14] = test system: HCT-116; experiment: Scratch (wound healing) assay; assay type: cell-based; conditions: scratch assays
# Procedure: (§3) Scratch Assay. A confluent monolayer was formed in 24-well plates. The monolayer was scratched by a sterile 200 μL pipette tip and washed with PBS to remove cell debris. Complete medium with CPPB (5) (0, 0.05, 0.1, 0.2 μM) were added and scratched areas were photographed with microscope. The scratched cells were incubated at 37° C., 5% CO2. After 24 h, medium was removed and cells were stained with a 1:1 mixture of crystal violet and PBS for 5 min., washed with PBS twice, and photographed with microscope. Wound areas were measured and recovered areas were calculated.
# [15] = test system: PD002; experiment: Scratch (wound healing) assay; assay type: cell-based; conditions: 0.2 μM, 24 h; untreated PD002 63%
# Procedure: as §3
# [16] = test system: SiHa; experiment: Scratch (wound healing) assay; assay type: cell-based; conditions: 0.2 μM
# Procedure: as §3
# [17] = test system: PD002; experiment: Cell migration assay using Transwell (Boyden) chamber; assay type: cell-based; conditions: 0.1 μM, 18 h; compared to tunicamycin and gemcitabine at 0.1 μM
# Procedure: Cell migration assays using Transwell chamber. Cell migration assay was performed using Boyden chamber (thermo fisher). PD002 cells (˜10^4 cells/mL) were seeded in 96-wells plate (Corning, HTS Transwell-96 Well Permeable Supports, pore size: 8 μm) in FBS free media and the lower chambers were filled with 10% FBS medium. CPPB, tunicamycin, or gemcitabine (0.1 μM) was added to the upper chamber. The cells were incubated for 18 h at 37° C. under 5% CO2. The cells were fixed using 4% paraformaldehyde for 0.5 h and stained with 0.05% crystal violet (300 μL/well), after 0.5 h, images were captured via 10× magnification microscopy.
substance,measurement,setting,value
"(2S,3S,4S)-2-((1R)-2-Amino-1-((2S,5R)-5-(2,4-dioxo-3,4-dihydropyrimidin-1(2H)-yl)-4-hydroxy-3-methoxytetrahydrofuran-2-yl)-2-oxoethoxy)-3,4-dihydroxy-N-(4-(4-(4-(trifluoromethoxy)-phenyl)piperidin-1-yl)benzyl)-3,4-dihydro-2H-pyran-6-carboxamide [CPPB]",pIC50,[1],4.60
same,pIC50,"[2]; MTT, 72 h",< 4.30
same,antiproliferative activity against HPNE,"[2]; at 50 μM, normal pancreatic ductal cell",did not show antiproliferative activity
same,pIC50,"[3]; MTT, 72 h",< 4.30
same,antiproliferative activity against Vero,"[3]; at 50 μM, normal kidney cell",did not show antiproliferative activity
same,pIC50,[4],4.82
same,pIC50,[5],4.46
same,cell viability of PD002 (MTT reduction assay),[6]; 50 μM,significantly decreased
same,pIC50,"[6]; MTT, 72 h",4.46
same,pIC50,[7],4.82
same,pIC50,"[8]; MTT, 72 h",< 4.30
same,antiproliferative activity against L1210,[8]; at 50 μM,did not show antiproliferative activity
same,pIC50,[9],6.82
same,Snail expression in SiHa,[10],inhibited by treatment of CPPB in a concentration dependent manner
same,DPAGT1 gene expression,[11],without significantly decreasing
same,viability of all pancreatic cancers tested (MTT),[12]; 20 μM concentration,remained viable
same,cytotoxicity against a series of cancer and healthy cell lines,[12]; at 10 μM or higher concentrations,not cytotoxic
same,Snail expression in pancreatic cancer cells,"[13]; PANC-1, AsPC-1, Capan-2, PD002",decreased by the treatment with CPPB in a concentration dependent manner; also recorded: decreased the Snail expression
same,Snail expression level in HCT-116,[13]; between 0.05 and 2.0 μM,not noticeably changed
same,cell migration of HCT-116,[14],not inhibited; also recorded: did not inhibit migration
same,wound-healing rate,[15],approximately 20%
same,migration of SiHa,[16],strongly inhibited migration
same,cell migration of PD002 via transwell chamber,[17],inhibited on a higher level

# From patent US12570684B2 (UNIVERSITY OF TENNESSEE RESEARCH FOUNDATION, priority 2020, dated 2026)
